Results: ChEMBL document CHEMBL5727426, “Tetrahydroisoquinoline derived PRMT5-inhibitors” (2019)

Test: Revised Biochemical Assay: Compounds of the invention may be tested for in vitro activity in the following assay: A histone H4 derived peptide is used as substrate (amino acid sequence: […]N H2). Full-length PRMT5 enzyme (NCBI Reference sequence NP_006100.2) was co-expressed with His6-MEP50 in insect cells and purified via Nickel immobilized metal affinity and gel filtration chromatography (the enzyme).The 6 μL reactions are run in Greiner brand black 384-well low volume assay plates. All reactions contained assay buffer (phosphate buffered saline, 0.01% (v/v) Tween-20, 0.01% (w/v) albumin from chicken egg white, 1 mM Dithiothreitol, 1 μM peptide substrate, 1 μM S-Adenosyl methionine, and 15 ng/reaction enzyme, with the enzyme being omitted from negative control reactions. Compounds were added in a volume of 100 nL from dilution series prepared in DMSO, positive and negative control reactions receiving the same volume DMSO without compound. The plates were sealed with adhesive seals and incubated for 4 hours at 37 degree Celsius. Reaction progress was measured using the Transcreener EPIGEN methyltransferase assay (BellBrook Labs, Madison, Wis.) as recommended by the manufacturer. To each reaction 2 μL detection mix were added, containing coupling enzymes, fluorescence polarisation tracer, and AMP antibody. Plates were incubated for 90 minutes before being read on a PerkinElmer EnVision plate reader in fluorescence polarisation mode.

Structure (SMILES) | IC50
COC(=O)N1[C@@H]2CC[C@H]1CC(Oc1cc(C(=O)NC[C@@H](O)[C@@H]3Cc4ccccc4CN3)ccn1)C2 (stereo partly drawn) | 38 nM
Cc1ccc(C(=O)NC[C@@H](O)[C@@H]2Cc3ccccc3CN2)cn1 | 4660 nM
O=C(NC[C@@H](O)[C@@H]1Cc2ccccc2CN1)c1ccc2[nH]ncc2c1 | 2740 nM
